Biological target: T1, HCV RNA-dependent RNA polymerase (Hepatitis C virus genotype 1a, UniProt P27958)
T1 construct: HCV RNA-dependent RNA polymerase is encoded in the NS5B (nonstructural protein 5B) region of HCV; made in house; host or cells: insect cells or E. coli
Assay: DIG-UTP assay without radioisotope-labeled substrate, with pre-incubation (Example 2)
Type: biochemical
Details: pre-incubation 25° C. 1 hr, I-1 0.5 μg/ml, 3′-dUTP 0.7 μM, A 100 μg/ml, B 50 μg/ml, C 25 μg/ml
Method: In Example 1, ^3H-UTP, that is UTP labeled with tritium as radioisotope was used as substrate in the assay with pre-incubation using HCV RNA-dependent RNA polymerase. Herein, digoxigenin-labeled UTP (DIG-UTP) instead of ^3H-UTP was used as substrate in the assay with pre-incubation using HCV RNA-dependent RNA polymerase. • 1) Streptavidin (1 mg/ml) was dissolved in the phosphate buffer saline (PBS) containing NaCl (0.137 M), KCl (2.68 mM), potassium dihydrogenphosphate (1.47 mM) and sodium phosphate (8.06 mM). • 2) The streptavidin solution was diluted 25-fold with the carbonate buffer containing sodium carbonate (0.9 M) and sodium hydrogencarbonate (0.1 M). • 3) The 25-fold streptavidin solution (50 μl/well) was transferred to a well of 96 wells-microtiter palate with flat bottom for immunoassay and then the plate was kept at 4° C. over night. • 4) After the 96 wells-microtiter plate was coated with streptavidin, the well was washed twice by adding, mixing and draining PBS (200 μl/well). • 5) The skim milk dissolved with PBS (1%, 300 μl) was transferred into each well and was kept at room temperature for 30 min. • 6) After the plate was washed once with PBS (200 μl/well), the well was filled with PBS (300 μl/well) and then the plate was stored at 4° C. • 7) After the PBS was drained from the streptavidin-coated plate stored under the condition described in 6), the well was washed once with PBS (200 μl/well) and was filled with de-ionized water (300 μl/well). • 8) The buffer I (10 μl) containing Tris-HCl (100 mM, pH 7.5), MgCl2 (25 mM), dithiothreitol (5 mM), KCl (125 mM) and ethylenediaminetetraacetic acid (5 mM) was transferred to a polypropylene tube and then poly(A) solution (6.25 μg/ml, 10 μl), biotin-labeled oligo(U)12 solution (3 μg/ml, 10 μl), water (10 μl) and HCV RNA-dependent RNA polymerase solution (10 μl) were added into the tube and mixed calmly. • 9) De-ionized water was drained from the plate described in 7), and the solution (50 μl/well) at once after the mixing described in 8) was transferred to each well. After mixing by a plate mixer, the solution was pre-incubated at 25° C. for 1 hr. • 10) On the other hand, the buffer I (10 μl) was transferred into another tube, and UTP (1 μM, 10 μl), DIG-UTP (300 μM, 1 μl), water (24 μl) and a test compound dissolved with dimethyl sulfoxide or water (5 μl) were added to the tube and mixed calmly. Concentrations of the compounds used were as follows.
• 11) The mixed solution (50 μl/well) described in 10) was transferred into each well after the pre-incubation described in 9), mixed by a plate mixer and then incubated at 25° C. for 1 hr. • 12) When the enzyme reaction was in 1 hr, the enzyme reaction was stopped by adding ethylenediaminetetraacetic acid (0.1 M, 50 μl/well). • 13) The plate was washed twice with PBS (200 μl/well) after end of the enzyme reaction. • 14) Next, alkaline phosphatase-labeled anti-DIG antibody (3 U/ml, 100 μl/well) diluted 250-fold with PBS containing skim milk (0.5%) was transferred each well. […] The substrate solution was transferred into each well of the plate, mixed by a plate mixer and then incubated at 25° C. for 1 hr until the color appears in the solution. • 17) The plate was set on a plate reader and the absorbance was measured at 405 nm. • 18) The inhibitory rate was calculated from the optical density (unit; OD) measured as follows. […]

T1 sequence (P27958 2421-3011): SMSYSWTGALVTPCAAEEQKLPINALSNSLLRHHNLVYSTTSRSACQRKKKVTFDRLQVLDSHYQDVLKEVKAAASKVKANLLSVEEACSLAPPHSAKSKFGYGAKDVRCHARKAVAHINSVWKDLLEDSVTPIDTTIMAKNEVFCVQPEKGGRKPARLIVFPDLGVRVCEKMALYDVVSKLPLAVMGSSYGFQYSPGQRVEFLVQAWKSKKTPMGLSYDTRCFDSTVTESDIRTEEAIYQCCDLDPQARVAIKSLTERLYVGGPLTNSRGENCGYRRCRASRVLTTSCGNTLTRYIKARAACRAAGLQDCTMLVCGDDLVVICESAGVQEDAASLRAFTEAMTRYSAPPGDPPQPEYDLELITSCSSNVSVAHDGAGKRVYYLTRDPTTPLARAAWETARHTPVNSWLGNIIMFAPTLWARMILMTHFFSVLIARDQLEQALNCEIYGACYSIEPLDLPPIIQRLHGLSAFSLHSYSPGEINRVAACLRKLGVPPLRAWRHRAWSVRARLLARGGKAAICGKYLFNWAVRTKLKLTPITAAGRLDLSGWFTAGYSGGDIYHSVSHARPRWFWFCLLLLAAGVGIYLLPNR

| Compound | Inhibitory rate, treatment of pre-incubation + | inhibition at 0.5 µg/mL (read-out: Inhibitory rate, treatment of pre-incubation +) |
| --- | --- | --- |
| CCCCC1=N/C(=C\c2ccccc2OCC(=O)O)C(=O)N1Cc1ccc(-c2ccccc2-c2nnn[nH]2)cc1 [Compound C] | 15% |  |
| O=c1ccn([C@@H]2O[C@H](COP(=O)(O)OP(=O)(O)OP(=O)(O)O)C[C@H]2O)c(=O)[nH]1 [3′-dUTP, 3′-deoxyuridine triphosphate] | 50% |  |
| O=C(O)/C(O)=C/C(=O)c1cccc(O)c1 [Compound I-1] |  | 52% |
| Cc1oc(-c2ccccc2)nc1CCOc1ccc(C=C2C(=O)NC(=O)NC2=O)cc1 [Compound A] | 24% |  |
| O=C1NC(=O)C(=Cc2ccc(OCCc3cccc4ccccc34)cc2)C(=O)N1 [Compound B] | 20% |  |

From patent US7018796B2, “Preincubation assay methods” (Shionogi & Co., Ltd., priority 2000, dated 2006)
